# Assay results: article PMC10033419, “Blocking NS3–NS4B interaction inhibits dengue virus in non-human primates” (Nature, 2023)
# Where “and” joins values, the source holds several entries; their conditions need not be identical. Equal values may be shown once.
# Tested on: DENV-2 RL strain
# Experiment: In vivo kinetics study, low viral inoculum (10^2 PFU)
# [1] = 20 mg/kg/d, day 4 p.i., individual mice
# [2] = 20 mg/kg/d, day 5 p.i., individual mice
# [3] = JNJ-1802 0.2 mg/kg/d, day 5 p.i., individual mice, 0.2 mg/kg/day
# [4] = JNJ-1802 0.2 mg/kg/d, day 6 p.i., individual mice, 0.2 mg/kg/day
# [5] = JNJ-1802 0.2 mg/kg/d, day 8 p.i., individual mice, 0.2 mg/kg/day
# [6] = JNJ-1802 0.2 mg/kg/d, day 11 p.i., individual mice
# [7] = JNJ-1802 2 mg/kg/d, day 5 p.i., individual mice
# [8] = JNJ-1802 2 mg/kg/d, day 6 p.i., individual mice
# [9] = JNJ-1802 2 mg/kg/d, day 8 p.i., individual mice
# [10] = JNJ-1802 2 mg/kg/d, day 11 p.i., individual mice, 2 mg/kg/day
# [11] = JNJ-1802 20 mg/kg/d, day 5 p.i., individual mice
# [12] = JNJ-1802 20 mg/kg/d, day 6 p.i., individual mice
# [13] = JNJ-1802 20 mg/kg/d, day 8 p.i., individual mice
# [14] = JNJ-1802 20 mg/kg/d, day 11 p.i., individual mice
structure (smiles),measurement,setting,value
COc1cc(N[C@H](C(=O)c2c[nH]c3ccc(OC(F)(F)F)cc23)c2ccc(Cl)cc2OC)cc(S(C)(=O)=O)c1 [JNJ-1802],"In vivo kinetics, Mean of Log10","20 mg/kg/d, day 4 p.i., group mean",2.59 Log10
same,"In vivo kinetics, Copies/ml",[1],3.93E+02 Copies/ml
same,"In vivo kinetics, Log10 of Copies/ml",[1],2.5940 Log10
same,"In vivo kinetics, Mean of Log10","20 mg/kg/d, day 5 p.i., group mean",2.76 Log10
same,"In vivo kinetics, Copies/ml",[2],3.93E+02 Copies/ml and 7.90E+03 Copies/ml
same,"In vivo kinetics, Log10 of Copies/ml",[2],2.5940 Log10 and 3.8977 Log10
same,effect on body weight,"20, 2 or 0.2 mg per kg per day b.i.d., 6 days",did not affect body weight
same,mean viral load vs vehicle,"20 and 2 mg per kg per day b.i.d., on 6 out of 8 days",reduced to undetectable levels
same,"In vivo kinetics - viral RNA, Copies/ml",[3],4.57E+04 Copies/ml and 9.46E+04 Copies/ml and 4.38E+05 Copies/ml
same,"In vivo kinetics - viral RNA, Log10",[3],4.6597 Log10 and 4.9759 Log10 and 5.6413 Log10
same,"In vivo kinetics - viral RNA, Mean of Log10","JNJ-1802 0.2 mg/kg/d, day 6 p.i., group mean",4.69 Log10
same,"In vivo kinetics - viral RNA, Copies/ml",[4],4.46E+04 Copies/ml and 2.63E+04 Copies/ml and 2.31E+04 Copies/ml and 1.84E+05 Copies/ml and 8.21E+04 Copies/ml and 8.40E+03 Copies/ml
same,"In vivo kinetics - viral RNA, Log10",[4],4.6493 Log10 and 4.4198 Log10 and 4.8549 Log10 and 5.1560 Log10 and 4.3639 Log10 and 5.2645 Log10 and 4.9143 Log10 and 3.9243 Log10
same,"In vivo kinetics - viral RNA, Mean of Log10","JNJ-1802 0.2 mg/kg/d, day 8 p.i., group mean",3.63 Log10
same,"In vivo kinetics - viral RNA, Copies/ml",[5],3.93E+02 Copies/ml and 4.25E+05 Copies/ml and 5.92E+05 Copies/ml
same,"In vivo kinetics - viral RNA, Log10",[5],2.5940 Log10 and 5.6283 Log10 and 5.7725 Log10
same,"In vivo kinetics - viral RNA, Mean of Log10","JNJ-1802 0.2 mg/kg/d, day 11 p.i., group mean",2.59 Log10
same,"In vivo kinetics - viral RNA, Copies/ml",[6],3.93E+02 Copies/ml
same,"In vivo kinetics - viral RNA, Log10",[6],2.5940 Log10
same,"In vivo kinetics - viral RNA, Copies/ml",[7],3.93E+02 Copies/ml
same,"In vivo kinetics - viral RNA, Log10",[7],2.5940 Log10
same,"In vivo kinetics - viral RNA, Mean of Log10","JNJ-1802 2 mg/kg/d, day 6 p.i., group mean",2.59 Log10
same,"In vivo kinetics - viral RNA, Copies/ml",[8],3.93E+02 Copies/ml
same,"In vivo kinetics - viral RNA, Log10",[8],2.5940 Log10
same,"In vivo kinetics - viral RNA, Mean of Log10","JNJ-1802 2 mg/kg/d, day 8 p.i., group mean",2.59 Log10
same,"In vivo kinetics - viral RNA, Copies/ml",[9],3.93E+02 Copies/ml
same,"In vivo kinetics - viral RNA, Log10",[9],2.5940 Log10
same,"In vivo kinetics - viral RNA, Mean of Log10","JNJ-1802 2 mg/kg/d, day 11 p.i., group mean",2.74 Log10
same,"In vivo kinetics - viral RNA, Copies/ml",[10],3.93E+02 Copies/ml and 3.01E+03 Copies/ml
same,"In vivo kinetics - viral RNA, Log10",[10],2.5940 Log10 and 3.4790 Log10
same,"In vivo kinetics - viral RNA, Copies/ml",[11],3.93E+02 Copies/ml
same,"In vivo kinetics - viral RNA, Log10",[11],2.5940 Log10
same,"In vivo kinetics - viral RNA, Mean of Log10","JNJ-1802 20 mg/kg/d, day 6 p.i., group mean",2.59 Log10
same,"In vivo kinetics - viral RNA, Copies/ml",[12],3.93E+02 Copies/ml
same,"In vivo kinetics - viral RNA, Log10",[12],2.5940 Log10
same,"In vivo kinetics - viral RNA, Mean of Log10","JNJ-1802 20 mg/kg/d, day 8 p.i., group mean",2.59 Log10
same,"In vivo kinetics - viral RNA, Copies/ml",[13],3.93E+02 Copies/ml
same,"In vivo kinetics - viral RNA, Log10",[13],2.5940 Log10
same,"In vivo kinetics - viral RNA, Mean of Log10","JNJ-1802 20 mg/kg/d, day 11 p.i., group mean",2.59 Log10
same,"In vivo kinetics - viral RNA, Copies/ml",[14],3.93E+02 Copies/ml
same,"In vivo kinetics - viral RNA, Log10",[14],2.5940 Log10
same,"In vivo kinetics, Mean of Log10","mouse, in vivo",2.78 Log10
same,"In vivo kinetics - viral RNA, Copies/ml","mouse, in vivo, 0.2 mg/kg/day",7.16E+04 Copies/ml and 1.43E+05 Copies/ml
